≈ marks a conversion by molar mass, not a printed value. *1 amine or outer side, *2 acyl side, *3 side chain or, on linkers, in order; H or OH if unused. Where a SMILES comes first, the peptide text is derived from it. [ ]: non-standard residue; d: D form. X1 = O=C(C[C@@H](CCCCCCCCCCC(F)(F)F)N[*:1])[*:2]
Conditions: 19F NMR samples in D2O containing Saboraud Dextrose Broth (30 g/L), 5% d6-DMSO added to avoid precipitation

Work on NC(=O)CC[C@@H]1NC(=O)[C@@H](CC(N)=O)NC(=O)[C@@H](Cc2ccc(O)cc2)NC(=O)[C@H](CC(N)=O)NC(=O)C[C@@H](CCCCCCCCCCC(F)(F)F)NC(=O)[C@H](CO)NC(=O)[C@@H](CC(N)=O)NC(=O)[C@@H]2CCCN2C1=O [Compound 9, ω‐CF3 iturin A2] (cyclo(N[dY][dN]QP[dN]S[X1])) yielded an aqueous solubility of 100 µM (≈ 110 µg/mL).

Source: paper PMC12777510 (Chempluschem, 2025)
